Measured values as given in US12528741B2, “Compositions for controlling microbially induced concrete corrosion” (The Regents of the University of Colorado, priority 2020, dated 2026).

What was measured:
[1] = test system: Acidithiobacillus spp. enrichments from sewer crown biofilm extract; assay: metal inhibition in liquid media (pH monitoring and cell counts of sewer enrichments); type: cell-based; conditions: for cell density where pH dropped: average, aliquots when pH reached 2
Protocol: FIGS. 4A-4E are graphs showing pH of enrichments including different levels of copper, cobalt, and silver, alone and in combinations. FIG. 4A: Cu^2+, FIG. 4B: Ag+, FIG. 4C: Cu/Ag in combination at a ratio 2:1, FIG. 4D: Co^2+, and FIG. 4E: Cu/Co in combination at a ratio 1:1. Enrichments were inoculated with 150 μL of biofilm extract from a corroded site and dominated by Acidithiobacillus spp. (>95% relative abundance).
FIGS. 5A-5E are graphs showing cell densities (cells/mL) observed in sewer sourced enrichment cultures including copper, cobalt and silver, alone and in combinations. FIG. 5A: Cu^2+, FIG. 5B: Ag^+, FIG. 5C: Cu^2+/Ag^+ in combination at a ratio 2:1, FIG. 5D: Co^2+, and FIG. 5E: Cu^2+/Co^2+ in combination at a ratio 1:1. Light grey bars indicate enrichment cultures where pH dropped below 2. Dark grey bars indicate batches where pH approached neutrality. (n=3).
The pH was monitored and used as an indicator for significant acidophilic SOB activity (FIGS. 4A-4E). Thiobacillus media, without any metal addition, was used as control for comparative analysis. […] Above 40 mg Cu/L, no pH depression was observed; in contrast, pH increased and plateaued at values ranging between 6.5 and 6.7. […] Where only cobalt and silver were used, all challenges indicated some evidence of acidophilic activity.
Combinations of metals were also studied, including Cu/Ag and Cu/Co at mass ratios of 2:1 and 1:1, respectively. […] Thresholds for pH were also observed above 10 mg Cu/L and 10 mg Co/L, where copper and cobalt were combined. This challenge was monitored over 30 days, indicating significant acidophilic activity after […] of incubation.
All metal species used for the challenges were based on nitrate salts. Therefore, inhibition in the presence of counter ions, was also monitored. Challenges with increasing NO3 concentrations (up to 200 mg NO3/L) where prepared with NaNO3. All challenges indicated acidophilic activity and no lag effect was ever observed.
Aliquots for cell quantification and genetic analyses were extracted from each experiment when pH reached 2. If no pH drop was observed, aliquots were extracted after 30 days of incubation. FIGS. 5A-5E illustrate the observed cell densities for all tests.
The inhibitory effects and minimum inhibitory concentration of Cu and Co were further assessed on mixed acidophilic cultures in a liquid format. Silver (Ag) was also included based on its literature history as broad-spectrum inhibitory metal. As for the solid inhibition assays, the results presented in this study support the hypothesis that different metal may ions have markedly different inhibitory potential against Acidithiobacillus spp. extracted from sewer crowns. […] In thiosulfate-based media, stationary phase for Acidithiobacillus cultures was reached 8 days after inoculation. The relative duration of experiments highlighted metal-induced lag phases from stable inhibitory concentrations. MICs clearly emerged for Cu alone (50 mg Cu/L), and in mixtures of Cu/Ag (50 mg/L and 25 mg/L) and Cu/Co (15 mg/L and 15 mg/L). […] No inhibitory synergism was observed when mixing Cu and Ag at a 2:1 ratio, when compared to any individual metal alone. However, synergistic inhibition was observed when Cu and Co were present at a 1:1 ratio. […] The literature is tenuous on this topic.

[2] = test system: sulfur oxidizing bacteria isolated from a corroding sewer (Acidithiobacillus spp.); assay: modified Kirby-Bauer diffusion susceptibility test, metal-laden PAC on thiosulfate agar (solid media); type: cell-based, Acidithiobacillus thiooxidans; conditions: average
Text: Bacterial cell abundance on the different areas of the plate surfaces were quantified using the epifluorescence microscopy methods known in the art. Areas selected for representative analysis were located in the center of each inhibition zone and the dispersed colonies area, and 10 mm into the bacterial monolayer.
Acidithiobacillus spp. response to metal mixtures is limited, however, the synergy of binary and ternary metal solutions have been described. […] The classic Kirby-Bauer antibiotic sensitivity test was adopted to assess diffusion inhibition of Acidithiobacillus thiooxidans growing on agar surfaces, in a longitudinal format.

Acidithiobacillus spp. = assay: 16S rRNA gene analysis of metal-exposed enrichment cultures; type: cell-based; conditions: below 40 mg Cu/L
Text: Cu and Cu/Ag mixtures were chosen to investigate the microbial communities under conditions where a pH threshold was observed. 16S rRNA gene analysis of 17 samples generated over 4 million sequences, classified in 611 operational taxonomic units (OTUs). After rarefaction analysis, the median Good's coverage was >99.9%, indicating enough sequencing data to confidently describe the diversity within these samples. Abundant OTUs consistently included 5 bacteria genera (FIGS. 6A-6B). Samples with metal concentration below the acidophilic inhibition threshold (40 mg Cu/L) indicated bacterial communities were dominated by Acidithiobacillus spp. […] When copper and silver were both present, Acidithiobacillus represented the dominant genus below the concentrations of 40 mg Cu/L and 20 mg Ag/L. The same genus represented less than 1% in batches above these concentrations. Following the same pattern as in the presence of Cu alone, the enrichments were also dominated by Burkholderia and Ralstonia spp. with significant presence of Sphingomonas spp., Leifsonia spp., Methylobacterium spp., and Microbacteriaceae spp. (when Cu ≥40 mg/L).

`[Ag]` [Ag, silver] was tested, and the “MIC, Ag” value ([1]; 30 days, Ag alone (highest tested) or in Cu/Ag) was greater than 75 µg/mL, the “threshold Ag concentration for pH depression” value ([1]; Ag alone (highest tested) or Cu/Ag 2:1) was no less than 75 mg Ag/L and the “cell density where pH dropped” value [1] was 1.73×10^8 cells/mL.
For `[Cd]` [Cd, cadmium], the “metal normalized inhibition length (Cd)” value [2] was 0.74 cm·(mg Cd/L)^−1.
With `[Co+2]` [Co, cobalt] the “metal normalized inhibition length (Co)” value ([2]; Co alone or co-loaded with Cu on PAC) was 1.23 cm·(mg Co/L)^−1, the “MIC, Co” value ([1]; 30 days, Co alone or in Cu/Co) was greater than 50 µg/mL and the “threshold Co concentration for pH depression” value ([1]; Co alone (highest tested) or Cu/Co 1:1) was no less than 50 mg Co/L. For the same compound, the “cell density where pH dropped” value [1] was 3.81×10^8 cells/mL.
`[Cu+2]` [Cu, copper] was tested, and the “metal normalized inhibition length (Cu)” value ([2]; agar, 10 days, pH below 3, Cu alone or co-loaded with Co on PAC) was 2.36 cm·(mg Cu/L)^−1, the “MIC, Cu” value ([1]; 30 days, Cu alone or in Cu/Ag 2:1, Cu/Co 1:1) was 50 µg/mL and the “cell density where pH did not drop” value ([1]; aliquots after 30 days) was 1.11×10^9 cells/mL. The “cell density where pH dropped” value [1] was 1.06×10^8 cells/mL, the “minimum inhibitory concentration (MIC) for acidophilic growth” value ([1]; no significant pH drop after 30 days, Cu alone) was 50 mg Cu/L and the “endpoint pH of challenges at or below threshold” value ([1]; up to 40 mg Cu/L) was less than 2 pH. For the same compound, the “Acidithiobacillus relative abundance below threshold” value (Acidithiobacillus spp.) was greater than 99%.
With `O=[N+]([O-])[O-].[Na+]` [NaNO3, reference compound] the “highest NO3 concentration still showing acidophilic activity, no lag” value ([1]; counter ion challenge) was no less than 200 mg NO3/L.
In the case of `[Ni]` [Ni, nickel], the “metal normalized inhibition length (Ni)” value [2] was 0.28 cm·(mg Ni/L)^−1.
For `[Zn]` [Zn, zinc], the “metal normalized inhibition length (Zn)” value [2] was 0.14 cm·(mg Zn/L)^−1.
